{
  "source": "patent US20090011041A1",
  "about": "“Compositions for Correcting Age Related Changes of a Human Endocrine System and Methods for Producing a Pharmaceutical Form Bases on Said Compositions” (priority 2004, published 2009)",
  "origin": "cited, not measured here",
  "key": {"[1]": {"details": "DHEA 50 mg/day, placebo effect less than 10%"}, "[2]": {"system": "diabetic mice"}, "[3]": {"system": "IGF-1 level", "details": "elderly patients; 50 mg/day; p<0.01"}, "[4]": {"system": "production of IL-6 by peripheral mononuclears", "details": "dose-dependent manner; p<0.01"}, "[5]": {"details": "for distribution volume: after PO use"}},
  "note": "Where two headings read alike, the source gives them in different places.",
  "data": [
    {"smiles": "C[C@]12CC[C@H](O)CC1=CC[C@@H]1[C@@H]2CC[C@]2(C)C(=O)CC[C@@H]12", "note": "[DHEA, dehydroepiandrosterone]", "values": [
      {"measurement": "improvement in the physical and mental state, females", "setting": "[1]; females", "value": 84, "unit": "%"},
      {"measurement": "improvement in the physical and mental state, males", "setting": "[1]; males", "value": 67, "unit": "%"},
      {"measurement": "hyperglycemia and hyperinsulinemia", "setting": "[2]", "value": "reduces hyperglycemia and hyperinsulinemia"},
      {"measurement": "IGF-1 level", "setting": "[3]", "value": "increases the IGF-1 level"},
      {"measurement": "production of IL-6 by peripheral mononuclears", "setting": "[4]", "value": "inhibit the production of IL-6"},
      {"measurement": "distribution volume", "setting": "[5]", "value": "17 to 38.5", "unit": "L"},
      {"measurement": "half-life period", "setting": "[5]; b32", "value": "0.25 to 0.5", "unit": "h"},
      {"measurement": "half-life elimination period", "setting": "[5]; b33", "value": "0.25 to 0.633", "unit": "h"},
      {"measurement": "metabolic clearance rate (MCR)", "setting": "[5]; in vivo", "value": 2000, "unit": "L/day"}
    ]},
    {"smiles": "C[C@]12CC[C@H](OS(=O)(=O)O)CC1=CC[C@@H]1[C@@H]2CC[C@]2(C)C(=O)CC[C@@H]12", "note": "[DHEA-S, DHEA-sulfate]", "values": [
      {"measurement": "production of IL-6 by peripheral mononuclears", "setting": "[4]", "value": "inhibit the production of IL-6"},
      {"measurement": "distribution volume", "setting": "[5]", "value": "8.5 to 9.3", "unit": "L"},
      {"measurement": "half-life period", "setting": "[5]; b32", "value": "7 to 10", "unit": "h"},
      {"measurement": "half-life period", "setting": "[5]; b33", "value": "7 to 22", "unit": "h"},
      {"measurement": "metabolic clearance rate (MCR)", "setting": "[5]; in vivo", "value": "5 to 20", "unit": "L/day"},
      {"measurement": "renal excretion, share of the elimination of DHEA-S and its metabolites", "setting": "[5]; in vivo", "value": "51-73%"}
    ]},
    {"smiles": "C[C@]12CCC(=O)C=C1CC[C@@H]1[C@@H]2CC[C@]2(C)C(=O)CC[C@@H]12", "note": "[androstenedione]", "values": [
      {"measurement": "production of IL-6 by peripheral mononuclears", "setting": "[4]", "value": "inhibit the production of IL-6"}
    ]}
  ]
}
